According to patent US7858635B2 (priority 2005, dated 2010):
Like-named read-outs stand apart in the source and are kept apart here.

Key:
[1] = molecular target: T1, M4 muscarinic receptor (Homo sapiens, UniProt P08173); test: Functional mobilization of intracellular calcium (FLIPR, Fluo-3), M4-CHO cells; type: cell-based; conditions: for Emax: read-out: M4 Efficacy
T1 construct: expressed in transfected cells; host or cells: CHO cells (M4-CHO, under puromycin, zeocin and blasticidin selection)
T1 sequence (P08173 1-479): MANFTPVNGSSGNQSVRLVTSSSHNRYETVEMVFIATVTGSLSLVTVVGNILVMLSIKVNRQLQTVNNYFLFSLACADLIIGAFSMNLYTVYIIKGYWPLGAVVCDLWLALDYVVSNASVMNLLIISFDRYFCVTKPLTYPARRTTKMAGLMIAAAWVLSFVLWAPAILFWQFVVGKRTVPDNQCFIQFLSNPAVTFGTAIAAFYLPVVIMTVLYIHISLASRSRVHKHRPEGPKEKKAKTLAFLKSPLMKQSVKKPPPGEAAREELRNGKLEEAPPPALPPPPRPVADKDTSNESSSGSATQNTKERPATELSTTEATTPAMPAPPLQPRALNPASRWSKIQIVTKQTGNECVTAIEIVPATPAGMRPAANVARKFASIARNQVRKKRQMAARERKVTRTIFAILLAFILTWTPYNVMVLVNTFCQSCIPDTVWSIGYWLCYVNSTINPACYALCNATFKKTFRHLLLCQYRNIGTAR
Outline: (§1)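 Intracellular calcium was tracked by fluorescence (488/540 nm) over 60 sec after compound addition to dye-loaded CHO cells expressing the receptor. Inhibitory activity used a 15 min pre-incubation before carbachol at the subtype EC80.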

[2] = molecular target: T2, M1 muscarinic receptor (Homo sapiens, UniProt P11229); test: Functional mobilization of intracellular calcium (FLIPR, Fluo-3), M1-CHO cells; type: cell-based; conditions: for Emax: read-out: M1 Efficacy
T2 construct: expressed in transfected cells; host or cells: CHO cells (M1-CHO, under zeocin and G418 selection)
T2 sequence (P11229 1-460): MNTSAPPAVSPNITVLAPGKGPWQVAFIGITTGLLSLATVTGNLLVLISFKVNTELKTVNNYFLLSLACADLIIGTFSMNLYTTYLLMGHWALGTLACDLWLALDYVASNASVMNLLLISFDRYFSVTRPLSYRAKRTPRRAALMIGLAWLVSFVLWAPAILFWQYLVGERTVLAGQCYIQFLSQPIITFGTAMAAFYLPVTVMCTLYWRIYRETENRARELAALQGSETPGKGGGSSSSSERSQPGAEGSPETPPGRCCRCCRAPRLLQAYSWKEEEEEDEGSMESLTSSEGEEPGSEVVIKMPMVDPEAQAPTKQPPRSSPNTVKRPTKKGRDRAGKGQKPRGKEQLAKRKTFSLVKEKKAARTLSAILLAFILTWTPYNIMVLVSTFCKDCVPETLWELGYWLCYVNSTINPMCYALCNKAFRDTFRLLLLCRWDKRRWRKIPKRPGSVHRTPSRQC
Outline: as §1

[3] = compound nos. 1-454, 100% efficacy is the maximum response obtained with the Carbachol control
[4] = compound nos. 1-454, M4-CHO cells, calcium mobilization
[5] = compound nos. 1-454, M1-CHO cells, calcium mobilization
[6] = compound nos. 455-509, 100% efficacy is the maximum response obtained with the Carbachol control

Structure (SMILES): COCCOC(=O)N1CCCC(N2CCC3(CC2)CN(C(C)=O)c2ccc(F)cc23)CC1 (stereo not shown) [compound 65]
- Emax [1, 3]: < 55%
- M4 Activity [1, 4]: + (activity was measured to be greater than or equal to 4.0 μM)
- Emax [2, 3]: 65 to 85%
- M1 Activity [2, 5]: ++ (activity was measured to be between 0.7 μM and 3.0 μM)

Structure (SMILES): COC(=O)N1CC2(CCN(C3CC4CCC(C3)N4C(=O)O[C@@H]3CCOC3)CC2)c2cc(F)ccc21 (stereo partly shown) [compound 192]
- Emax [1, 3]: 55 to 70%
- M4 Activity [1, 4]: + (activity was measured to be greater than or equal to 4.0 μM)
- Emax [2, 3]: 65 to 85%
- M1 Activity [2, 5]: +++ (activity was measured to be less than or equal to 0.7 μM)

Structure (SMILES): CC(=O)N1CC2(CCN(CC3=CCCCC3)CC2)c2cc(F)ccc21 [compound 163]
- Emax [1, 3]: > 70%
- M4 Activity [1, 4]: ++ (activity was measured to be between 0.1 μM and 4.0 μM)
- Emax [2, 3]: 65 to 85%
- M1 Activity [2, 5]: +++ (activity was measured to be less than or equal to 0.7 μM)

Structure (SMILES): c1ccc2c(c1)CCC21CCN(CC2CCOCC2)CC1 [compound 18]
- Emax [1, 3]: > 70%
- M4 Activity [1, 4]: ++ (activity was measured to be between 0.1 μM and 4.0 μM)
- Emax [2, 3]: < 65%
- M1 Activity [2, 5]: +++ (activity was measured to be less than or equal to 0.7 μM)

Structure (SMILES): CCOC(=O)N1C2CCC1CC(N1CCC3(CC1)CN(C(=O)c1cc(C)oc1C)c1ccc(F)cc13)C2 (stereo not shown) [compound 73]
- Emax [1, 3]: 55 to 70%
- M4 Activity [1, 4]: ++ (activity was measured to be between 0.1 μM and 4.0 μM)
- Emax [2, 3]: 65 to 85%
- M1 Activity [2, 5]: +++ (activity was measured to be less than or equal to 0.7 μM)

Structure (SMILES): COCCOC(=O)N1CCC(N2CCC3(CC2)CN(C(=O)N(C)C)c2ccc(F)cc23)CC1 [compound 265]
- Emax [1, 3]: < 55%
- M4 Activity [1, 4]: ++ (activity was measured to be between 0.1 μM and 4.0 μM)
- Emax [2, 3]: < 65%
- M1 Activity [2, 5]: ++ (activity was measured to be between 0.7 μM and 3.0 μM)

Structure (SMILES): CCOC(=O)N1C2CCC1CC(N1CCC3(CC1)CN(C(=O)Oc1ccc(F)cc1)c1ccc(F)cc13)C2 (stereo not shown) [compound 298]
- M4 Activity [1, 4]: + (activity was measured to be greater than or equal to 4.0 μM)
- Emax [1]: 55 to 70%
- M1 Activity [2, 5]: + (activity was measured to be greater than or equal to 3.0 μM)
- Emax [2]: < 65%

Structure (SMILES): CS(=O)(=O)N1CC2(CCN(C3CC4CCC(C3)N4C(=O)O[C@@H]3CCOC3)CC2)c2cc(F)ccc21 (stereo partly shown) [compound 16]
- Emax [1, 3]: 55 to 70%
- M4 Activity [1, 4]: +++ (activity was measured to be less than or equal to 0.1 μM)
- Emax [2, 3]: 65 to 85%
- M1 Activity [2, 5]: +++ (activity was measured to be less than or equal to 0.7 μM)

Structure (SMILES): CCOC(=O)N1C2CCC1CC(N1CCC3(CC1)CNc1ccc(F)cc13)C2 (stereo not shown) [compound 310]
- Emax [1, 3]: < 55%
- M4 Activity [1, 4]: + (activity was measured to be greater than or equal to 4.0 μM)
- Emax [2, 3]: < 65%
- M1 Activity [2, 5]: ++ (activity was measured to be between 0.7 μM and 3.0 μM)

Structure (SMILES): Cc1csc(N2CCC(N3CCC4(CC3)CN(C(=O)N(C)C)c3ccccc34)CC2)n1 [compound 499]
- Emax [1, 6]: 25 to 100%
- M4 Activity ([1]; compounds 455-509): ++ (activity was measured to be between 2.0 μM and 5.0 μM)
- Emax [2, 6]: > 100%
- M1 Activity ([2]; compounds 455-509): + (activity was measured to be greater than or equal to 5.0 μM)

Structure (SMILES): O=C(O[C@@H]1CCOC1)N1C2CCC1CC(N1CCC3(CC1)COc1ccc(F)cc13)C2 (stereo partly shown) [compound 338]
- Emax [1, 3]: < 55%
- M4 Activity [1, 4]: + (activity was measured to be greater than or equal to 4.0 μM)
- Emax [2, 3]: < 65%
- M1 Activity [2, 5]: + (activity was measured to be greater than or equal to 3.0 μM)

Structure (SMILES): CCCC1CCC(N2CCC3(CC2)CNc2ccccc23)CC1 (stereo not shown) [compound 334]
- Emax [1, 3]: < 55%
- M4 Activity [1, 4]: + (activity was measured to be greater than or equal to 4.0 μM)
- Emax [2, 3]: < 65%
- M1 Activity [2, 5]: + (activity was measured to be greater than or equal to 3.0 μM)

Structure (SMILES): CC(C)OC(=O)N1C2CCC1CC(N1CCC3(CC1)C(=O)Nc1ccccc13)C2 (stereo not shown) [compound 139]
- Emax [1, 3]: > 70%
- M4 Activity [1, 4]: +++ (activity was measured to be less than or equal to 0.1 μM)
- Emax [2, 3]: > 85%
- M1 Activity [2, 5]: +++ (activity was measured to be less than or equal to 0.7 μM)

Structure (SMILES): COc1ccc(OC(=O)N2C3CCC2CC(N2CCC4(CC2)COc2ccc(F)cc24)C3)cc1 (stereo not shown) [compound 100]
- M4 Activity [1, 4]: ++ (activity was measured to be between 0.1 μM and 4.0 μM)
- Emax [1]: 55 to 70%
- M1 Activity [2, 5]: +++ (activity was measured to be less than or equal to 0.7 μM)
- Emax [2]: 65 to 85%

Structure (SMILES): CCOC(=O)N1CCC(C)(CN2CCC3(CC2)C[C@H](NC(C)=O)c2ccccc23)CC1 [compound 315]
- Emax [1, 3]: < 55%
- M4 Activity [1, 4]: + (activity was measured to be greater than or equal to 4.0 μM)
- Emax [2, 3]: < 65%
- M1 Activity [2, 5]: + (activity was measured to be greater than or equal to 3.0 μM)

Structure (SMILES): CC(C)OC(=O)N1C2CCC1CC(N1CCC3(CC1)CN(S(C)(=O)=O)c1ccc(F)cc13)C2 (stereo not shown) [compound 170]
- Emax [1, 3]: > 70%
- M4 Activity [1, 4]: + (activity was measured to be greater than or equal to 4.0 μM)
- Emax [2, 3]: 65 to 85%
- M1 Activity [2, 5]: ++ (activity was measured to be between 0.7 μM and 3.0 μM)

Structure (SMILES): CCOC(=O)N1C2CCC1CC(N1CCC3(CC1)CN(C(C)=O)c1ccccc13)C2 (stereo not shown) [compound 205]
- Emax [1, 3]: < 55%
- M4 Activity [1, 4]: + (activity was measured to be greater than or equal to 4.0 μM)
- Emax [2, 3]: < 65%
- M1 Activity [2, 5]: + (activity was measured to be greater than or equal to 3.0 μM)

Structure (SMILES): CC(=O)NC1CC2(CCN(C[C@@H]3C[C@H]4C=C[C@H]3C4)CC2)c2ccccc21 (stereo partly shown) [compound 421]
- M4 Activity ([1]; compound nos. 1-454): + (activity was measured to be greater than or equal to 4.0 μM)
- M4 Efficacy [1, 3]: + (efficacy was calculated to be 55% or less)
- M1 Activity ([2]; compound nos. 1-454): + (activity was measured to be greater than or equal to 3.0 μM)
- M1 Efficacy [2, 3]: + (efficacy was calculated to be 65% or less)

Structure (SMILES): CN(C)C(=O)N1CC2(CCN(C3CCN(c4nccnc4C#N)CC3)CC2)c2cc(F)ccc21 [compound 480]
- Emax [1, 6]: 25 to 100%
- M4 Activity ([1]; compounds 455-509): ++ (activity was measured to be between 2.0 μM and 5.0 μM)
- Emax [2, 6]: 25 to 100%
- M1 Activity ([2]; compounds 455-509): ++ (activity was measured to be between 2.0 μM and 5.0 μM)

Structure (SMILES): CN(C)C(=O)N1CC2(CCN(C3CCN(c4ncns4)CC3)CC2)c2ccccc21 [compound 506]
- Emax [1, 6]: 25 to 100%
- M4 Activity ([1]; compounds 455-509): ++ (activity was measured to be between 2.0 μM and 5.0 μM)
- Emax [2, 6]: > 100%
- M1 Activity ([2]; compounds 455-509): ++ (activity was measured to be between 2.0 μM and 5.0 μM)

Structure (SMILES): CCOC(=O)N1CCC(N2CCC3(CC2)CN(C(=O)N(C)c2ccccc2)c2ccc(F)cc23)CC1 [compound 169]
- Emax [1, 3]: > 70%
- M4 Activity [1, 4]: + (activity was measured to be greater than or equal to 4.0 μM)
- Emax [2, 3]: 65 to 85%
- M1 Activity [2, 5]: +++ (activity was measured to be less than or equal to 0.7 μM)

Structure (SMILES): CC(=O)N1CC2(CCN(C3CCN(C(=O)O[C@@H]4CCOC4)CC3)CC2)c2cc(C)ccc21 [compound 279]
- Emax [1, 3]: < 55%
- M4 Activity [1, 4]: ++ (activity was measured to be between 0.1 μM and 4.0 μM)
- Emax [2, 3]: < 65%
- M1 Activity [2, 5]: ++ (activity was measured to be between 0.7 μM and 3.0 μM)

Structure (SMILES): CCCOC(=O)N1C2CCC1CC(N1CCC3(CC1)CN(C(=O)OC1CCC1)c1ccc(F)cc13)C2 (stereo not shown) [compound 329]
- Emax [1, 3]: < 55%
- M4 Activity [1, 4]: + (activity was measured to be greater than or equal to 4.0 μM)
- Emax [2, 3]: 65 to 85%
- M1 Activity [2, 5]: +++ (activity was measured to be less than or equal to 0.7 μM)

Structure (SMILES): CCOC(=O)N1CCC(N2CCC3(CC2)CN(C(=O)OCCOC)c2ccc(F)cc23)CC1 [compound 38]
- Emax [1, 3]: > 70%
- M4 Activity [1, 4]: +++ (activity was measured to be less than or equal to 0.1 μM)
- Emax [2, 3]: > 85%
- M1 Activity [2, 5]: +++ (activity was measured to be less than or equal to 0.7 μM)

Structure (SMILES): CCOC(=O)N1CCC(N2CCC3(CC2)CN(C(C)=O)c2ccc(-c4ccccc4C)cc23)CC1 [compound 78]
- Emax [1, 3]: < 55%
- M4 Activity [1, 4]: ++ (activity was measured to be between 0.1 μM and 4.0 μM)
- Emax [2, 3]: 65 to 85%
- M1 Activity [2, 5]: +++ (activity was measured to be less than or equal to 0.7 μM)
